This is an account of results in ChEMBL document CHEMBL5584241, “Discovery of new anti-diabetic potential agents based on paracetamol incorporating sulfa-drugs: Design, synthesis, α-amylase, and α-glucosidase inhibitors with molecular docking simulation” (Eur J Med Chem, 2024).

One experiment is filed under the species Homo sapiens. As to the kind of experiment: Inhibition of alpha-glucosidase (unknown origin) at 100 ug/ml using p-nitrophenyl-alpha-D-glucopyranoside as substrate incubated for 15 to 25 mins by spectrophotometric analysis relative to control. The settings on record: dose 100.0 µg/ml, time 15-25 min.
Experiment [1] in a line: Inhibition of alpha-glucosidase (unknown origin) using p-nitrophenyl-alpha-D-glucopyranoside as substrate incubated for 15 to 25 mins by spectrophotometric analysis. Further details: species or system Homo sapiens.
Another experiment concerns the target Maltase-glucoamylase (Homo sapiens, UniProt O43451). As to the kind of experiment: Inhibition of intestinal alpha-glucosidase (unknown origin) using p-nitrophenyl-alpha-D-glucopyranoside as substrate preincubated for 5 mins followed by substrate addition and measured after 5 mins by spectrophotometric analysis.
The next experiment concerns the target T1, Alpha amylase (Homo sapiens, UniProt P0DUB6).
T1 sequence (P0DUB6 whole entry): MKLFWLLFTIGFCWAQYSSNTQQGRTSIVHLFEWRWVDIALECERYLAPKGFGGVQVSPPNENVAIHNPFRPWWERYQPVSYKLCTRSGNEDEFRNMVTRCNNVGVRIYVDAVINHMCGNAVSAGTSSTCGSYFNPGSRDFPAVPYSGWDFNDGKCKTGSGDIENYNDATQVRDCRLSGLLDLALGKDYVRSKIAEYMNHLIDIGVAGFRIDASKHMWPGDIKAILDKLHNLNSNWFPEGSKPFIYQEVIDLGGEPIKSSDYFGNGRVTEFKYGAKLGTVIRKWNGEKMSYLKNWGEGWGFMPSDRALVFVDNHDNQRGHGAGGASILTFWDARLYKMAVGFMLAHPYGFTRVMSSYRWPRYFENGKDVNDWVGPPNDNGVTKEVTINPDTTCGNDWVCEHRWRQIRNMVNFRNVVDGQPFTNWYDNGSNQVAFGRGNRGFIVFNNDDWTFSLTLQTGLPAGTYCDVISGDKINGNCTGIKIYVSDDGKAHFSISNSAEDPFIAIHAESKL
As to the kind of experiment: Inhibition of alpha-amylase (unknown origin). The format is protein assay.

The nature of experiment [2]: Inhibition of alpha-glucosidase (unknown origin). Further details: species or system Homo sapiens.

Structures are written as SMILES.

Chain of Maltase-glucoamylase (O43451 whole entry): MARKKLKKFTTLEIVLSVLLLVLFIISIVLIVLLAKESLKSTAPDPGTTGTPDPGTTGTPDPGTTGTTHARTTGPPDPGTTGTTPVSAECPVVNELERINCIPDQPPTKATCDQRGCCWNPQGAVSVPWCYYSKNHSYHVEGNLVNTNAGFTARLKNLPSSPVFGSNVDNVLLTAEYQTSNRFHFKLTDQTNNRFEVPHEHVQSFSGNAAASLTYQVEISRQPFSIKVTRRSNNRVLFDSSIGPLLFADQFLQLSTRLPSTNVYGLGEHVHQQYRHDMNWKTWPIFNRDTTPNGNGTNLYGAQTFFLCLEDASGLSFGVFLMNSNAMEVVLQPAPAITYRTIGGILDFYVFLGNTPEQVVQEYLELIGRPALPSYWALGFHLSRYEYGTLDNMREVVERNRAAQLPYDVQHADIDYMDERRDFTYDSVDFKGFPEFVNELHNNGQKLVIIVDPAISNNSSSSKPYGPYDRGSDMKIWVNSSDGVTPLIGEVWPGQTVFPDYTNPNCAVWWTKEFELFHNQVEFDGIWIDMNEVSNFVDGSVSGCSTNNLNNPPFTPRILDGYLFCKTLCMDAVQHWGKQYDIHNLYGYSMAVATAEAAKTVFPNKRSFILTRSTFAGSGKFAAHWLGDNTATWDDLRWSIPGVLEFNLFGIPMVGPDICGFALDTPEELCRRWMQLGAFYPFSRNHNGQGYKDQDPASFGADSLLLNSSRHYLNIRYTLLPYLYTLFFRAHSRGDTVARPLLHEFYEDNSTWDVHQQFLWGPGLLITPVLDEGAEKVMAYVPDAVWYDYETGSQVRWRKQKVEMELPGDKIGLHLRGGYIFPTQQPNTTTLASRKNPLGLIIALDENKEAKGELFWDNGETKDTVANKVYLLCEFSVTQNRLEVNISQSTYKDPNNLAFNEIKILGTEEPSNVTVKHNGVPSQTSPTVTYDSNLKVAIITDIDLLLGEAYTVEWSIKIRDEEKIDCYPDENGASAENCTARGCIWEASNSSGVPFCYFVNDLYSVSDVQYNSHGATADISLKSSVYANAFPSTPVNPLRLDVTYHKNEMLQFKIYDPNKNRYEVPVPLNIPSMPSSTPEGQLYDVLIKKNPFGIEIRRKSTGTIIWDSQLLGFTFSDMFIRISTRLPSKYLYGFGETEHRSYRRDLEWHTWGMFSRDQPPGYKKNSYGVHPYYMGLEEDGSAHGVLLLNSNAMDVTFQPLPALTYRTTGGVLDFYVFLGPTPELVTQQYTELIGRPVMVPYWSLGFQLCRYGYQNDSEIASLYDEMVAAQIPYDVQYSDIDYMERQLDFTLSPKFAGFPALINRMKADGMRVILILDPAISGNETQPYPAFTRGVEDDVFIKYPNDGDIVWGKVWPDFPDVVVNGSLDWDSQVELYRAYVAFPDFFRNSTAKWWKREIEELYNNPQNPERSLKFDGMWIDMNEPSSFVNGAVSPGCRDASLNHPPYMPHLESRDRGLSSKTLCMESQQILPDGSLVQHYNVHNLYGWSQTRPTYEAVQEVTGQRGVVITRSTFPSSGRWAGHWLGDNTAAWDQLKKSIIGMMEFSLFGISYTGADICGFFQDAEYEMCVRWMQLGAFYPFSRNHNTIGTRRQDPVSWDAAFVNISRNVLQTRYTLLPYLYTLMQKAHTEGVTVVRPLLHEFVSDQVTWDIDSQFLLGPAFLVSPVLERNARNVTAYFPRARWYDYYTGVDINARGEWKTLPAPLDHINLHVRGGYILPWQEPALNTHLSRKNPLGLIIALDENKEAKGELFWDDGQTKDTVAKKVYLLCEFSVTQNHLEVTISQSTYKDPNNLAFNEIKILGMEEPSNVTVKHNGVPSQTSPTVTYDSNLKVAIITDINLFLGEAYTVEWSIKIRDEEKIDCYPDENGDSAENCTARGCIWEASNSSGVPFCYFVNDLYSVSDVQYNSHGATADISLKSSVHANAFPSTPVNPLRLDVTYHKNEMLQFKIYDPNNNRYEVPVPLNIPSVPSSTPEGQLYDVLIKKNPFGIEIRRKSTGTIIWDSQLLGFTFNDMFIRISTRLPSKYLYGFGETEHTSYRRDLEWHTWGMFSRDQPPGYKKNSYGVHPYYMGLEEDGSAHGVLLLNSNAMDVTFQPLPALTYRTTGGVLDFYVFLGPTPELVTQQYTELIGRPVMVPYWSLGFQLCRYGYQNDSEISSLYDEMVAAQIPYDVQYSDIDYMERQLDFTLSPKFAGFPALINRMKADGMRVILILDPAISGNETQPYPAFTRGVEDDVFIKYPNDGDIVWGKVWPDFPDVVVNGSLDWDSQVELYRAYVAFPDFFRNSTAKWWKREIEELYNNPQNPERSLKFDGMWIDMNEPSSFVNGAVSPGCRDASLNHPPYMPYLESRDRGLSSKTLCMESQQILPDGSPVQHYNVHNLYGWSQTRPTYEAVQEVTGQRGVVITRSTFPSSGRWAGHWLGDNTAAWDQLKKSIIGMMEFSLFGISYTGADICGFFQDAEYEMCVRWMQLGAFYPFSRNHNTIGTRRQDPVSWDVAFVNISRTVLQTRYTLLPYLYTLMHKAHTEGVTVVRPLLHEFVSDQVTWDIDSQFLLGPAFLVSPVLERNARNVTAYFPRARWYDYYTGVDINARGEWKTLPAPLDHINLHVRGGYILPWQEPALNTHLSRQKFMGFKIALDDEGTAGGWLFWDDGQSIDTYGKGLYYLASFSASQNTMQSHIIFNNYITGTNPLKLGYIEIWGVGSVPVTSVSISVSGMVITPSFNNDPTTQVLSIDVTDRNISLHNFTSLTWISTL

Consider `CC(=O)Nc1ccc(O)c(/N=N/c2ccc(S(=O)(=O)Nc3noc(C)c3C)cc2)c1`, for which, in the experiment filed under Homo sapiens, the inhibition is 95.6%. This molecule also returned an IC50 in experiment [1] of 2.95 µM. The like results for `CC(=O)Nc1ccc(O)c(/N=N/c2ccc(S(=O)(=O)Nc3nc(C)cc(C)n3)cc2)c1` were, in that order, 94.1% and 5.13 µM. `C[C@H]1O[C@H](O[C@H]2[C@H](O)[C@@H](O)[C@@H](O[C@H]3[C@H](O)[C@@H](O)C(O)O[C@@H]3CO)O[C@@H]2CO)[C@H](O)[C@@H](O)[C@@H]1N[C@H]1C=C(CO)[C@@H](O)[C@H](O)[C@H]1O` (stereo partly specified) [ACARBOSE]: the inhibition in the experiment listed under Homo sapiens was 95.8%. In experiment [1], the IC50 was 1.24 µM. With `CC(=O)Nc1ccc(O)c(/N=N/c2ccc(S(N)(=O)=O)cc2)c1`, the inhibition in the experiment filed under Homo sapiens amounted to 93.6%. Moreover, the IC50 in experiment [1] was 11 µM. Take `O=S(=O)(NCCc1c[nH]c2ccccc12)c1cc(F)ccc1Cl`: the IC50 against Maltase-glucoamylase stood at 1.6 µM. In the experiment filed under Homo sapiens, `CC(=O)Nc1ccc(O)c(/N=N/c2ccc(S(=O)(=O)NC(=N)N)cc2)c1` had an inhibition of 91%. Moreover, half-maximal inhibition in experiment [1] (IC50) required 96.5 µM. Take `CC(=O)Nc1ccc(O)c(/N=N/c2ccc(S(=O)(=O)Nc3cc(C)on3)cc2)c1`: the inhibition in the experiment filed under Homo sapiens came out at 92.6%. In addition, 18.3 µM corresponded to half-maximal inhibition in experiment [1] (IC50). At Alpha amylase, `COc1ccccc1S(=O)(=O)Nc1nnc(-c2ccc([N+](=O)[O-])cc2)s1` gave an IC50 of 2.4 µM. In turn, `CC(=O)Nc1ccc(O)c(/N=N/c2ccc(S(=O)(=O)Nc3ccc(Cl)nn3)cc2)c1` gave an inhibition in the experiment filed under Homo sapiens of 94.2%. Further, the IC50 in experiment [1] is 19.1 µM. In the experiment listed under Homo sapiens, `CC(=O)Nc1ccc(O)c(/N=N/c2ccc(S(=O)(=O)Nc3nccs3)cc2)c1` showed an inhibition of 93.4%. Further, the concentration for half-maximal inhibition (IC50) in experiment [1] came out at 44.1 µM. With `O=[N+]([O-])c1ccc(-c2nnc(NS(=O)(=O)c3ccc(Cl)c(Cl)c3)s2)cc1`, half-maximal inhibition in experiment [2] (IC50) required 5.5 µM. In turn, `CC(=O)Nc1ccc(O)c(/N=N/c2ccc(S(=O)(=O)Nc3ncccn3)cc2)c1` returned an inhibition in the experiment listed under Homo sapiens of 95.7%. This molecule also gave a concentration for half-maximal inhibition (IC50) in experiment [1] of 1.39 µM.
